Test results as given in patent US9814663B2, “Peptide, method and composition for inhibiting melanogenesis” (RENORIGIN INNOVATION INSTITUTE CO., LTD., priority 2016, dated 2017).

Columns and labels:
Assay type in all cases: cell-based, murine
Tyrosinase [1] = assay: DOPA staining; conditions: B16F10 cells, 10 and 50 μg/ml peptide, 4 days
Protocol: (§1) B16F10 murine melanoma cells were cultured in phenol red-free DMEM with 10% fetal bovine serum and penicillin/streptomycin (100 IU/50 […]) in a humidified atmosphere containing 5% CO2 in air at 37° C.
DOPA staining was also performed to measure tyrosinase enzyme activity. B16F10 cells were seeded in 6-well plate (2×10^4 cells/well) and incubated overnight to allow cells to adhere. After treating with various test samples in an incubator for 4 days, cells were washed with PBS, fixation with 2% paraformaldehyde and washing with PBS a further three times, the cells were incubated with 0.1% DOPA (dissolved in 0.1 M PBS) at 37° C. for 5 hour, and observed using light microscopy (Wang et al., Exp Ther Med 6, 967-972, 2013).

B16F10 melanoma cells = assay: Cell pigmentation of treated B16F10 cultures (FIG. 1); conditions: 50 μg/ml peptide, 5 days
Protocol: B16F10 melanoma cells were treated with 10-50 μg/ml peptide of SEQ ID NO: 1 (“Lf H-392-399”) for 5 days with a medium change at day 3. The cells and medium were recovered in test tubes. Kojic acid is used as […] in the cellular study due to known inhibitory effects on tyrosinase activity. IBMX is used as positive control in the cellular study due to known elevator of cellular cAMP level, […].
as §1

B16F10 cells = assay: Melanin content assay; conditions: 10 and 50 μg/ml peptide, 5 days, p<0.05 compared to control
Protocol: as §1
Melanin contents of cultured B16F10 cells were measured according to the method (Lee et al., J Invest Dermatol 124, 405-411, 2005) with a slight modification. Briefly, B16F10 cells were seeded in 6-well plate (2×10^4 cells/well) and incubated overnight to allow cells to adhere. After treating with various test samples in an incubator for 5 days, washed, trypsinized and counted before pelleting. Melanin per cell was quantified after boiling in 1 M NaOH for 1 hour and melanin content in each sample was read from a calibration curve against synthetic eumelanin at 400 nm and converted to means±SE melanin pg/cell from 3 independent experiments.

Tyrosinase [2] = assay: Tyrosinase assay (cell lysate, L-DOPA); conditions: B16F10 cells, 10 and 50 μg/ml peptide, 5 days; p<0.05 compared to control
Protocol: as §1
Tyrosinase is the rate limiting enzyme in the melanogenic pathway. Its measurement provides a highly specific and sensitive indication of degree of induction of melanogenesis. Tyrosinase enzyme activity of cultured B16F10 cells were measured according to the method of (Bellei et al., J Biol Chem 285, 7288-7299, 2010) with a slight modification. Briefly, B16F10 cells were seeded in 6-well plate (2×10^4 cells/well) and incubated overnight to allow cells to adhere. After treating with various test samples in an incubator for 5 days, cells were washed with PBS and then harvested using trypsin. At the end point, the cells were solubilized with phosphate buffer (pH 6.8) containing 1% Triton X-100. The cells were then disrupted by freezing and thawing, and the lysates were clarified by centrifugation at 10,000×g for 10 min. After protein quantification and adjustment of protein concentrations with lysis buffer, 100 μl of each lysate (each containing the same amount of protein) were aliquoted into the wells of a 96-well plate, and 100 μl of 5 mM L-DOPA were then added to each well. The absorbance was measured spectrophotometrically at 475 nm following a 30-min incubation period at 37° C. […]

DOPA staining (Tyrosinase [1]): weaker DOPA staining
Sequence: SSASTTED (listed as Homo sapiens) [Lf H-392-399]
cell pigmentation (B16F10 melanoma cells): reduced cell pigmentation
melanin synthesis (melanin content in cells and melanin secretion in culture medium) (B16F10 cells): significantly decreased melanin synthesis
tyrosinase activity (Tyrosinase [2]): significantly decreased tyrosinase activity
